Measured values published in the supplement of paper PMC10307832.

Legend:
Test in all cases: relative viability (nuclei count vs DMSO), 5 days (fraction); higher = more cells survive
Calu-6 = system: Calu-6
Outline: (§1)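 A single step with final 0.05% Triton X-100, 1% formaldehyde and 1 ug/ml Hoechst fixed the cells and stained nuclei 5 days after treatment. Lung cancer cell lines in 1536-well plates had been treated by pin tool the day after seeding with one drug alone or a fixed anchor-drug dose plus five library-drug doses (not always all listed) in √10 steps, and nuclei were counted on 4× images. Relative viability is the ratio of nuclei in treated wells to nuclei in vehicle wells, taken as the median of duplicate plates.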

NCI-H1563 = system: NCI-H1563
Outline: as §1

IA-LM = system: IA-LM
Outline: as §1

A549 = system: A549
Outline: as §1

EBC-1 = system: EBC-1
Outline: as §1

NCI-H1703 = system: NCI-H1703
Outline: as §1

NCI-H1299 = system: NCI-H1299
Outline: as §1

SMILES	relative viability (Calu-6; first compound 0.08 µM)	relative viability (Calu-6; first compound 0.253 µM)	relative viability (Calu-6; first compound 0.8 µM)	relative viability (Calu-6; first compound 2.53 µM)	relative viability (NCI-H1563; first compound 0.08 µM)	relative viability (NCI-H1563; first compound 0.253 µM)	relative viability (NCI-H1563; first compound 0.8 µM)	relative viability (NCI-H1563; first compound 2.53 µM)	relative viability (IA-LM; first compound 0.08 µM)	relative viability (IA-LM; first compound 0.253 µM)	relative viability (IA-LM; first compound 0.8 µM)	relative viability (IA-LM; first compound 2.53 µM)	relative viability (A549; first compound 0.08 µM)	relative viability (A549; first compound 0.253 µM)	relative viability (A549; first compound 0.8 µM)	relative viability (A549; first compound 2.53 µM)	relative viability (EBC-1; first compound 0.08 µM)	relative viability (EBC-1; first compound 0.253 µM)	relative viability (EBC-1; first compound 0.8 µM)	relative viability (EBC-1; first compound 2.53 µM)	relative viability (NCI-H1703; first compound 0.08 µM)	relative viability (NCI-H1703; first compound 0.253 µM)	relative viability (NCI-H1703; first compound 0.8 µM)	relative viability (NCI-H1703; first compound 2.53 µM)	relative viability (NCI-H1299; first compound 0.08 µM)	relative viability (NCI-H1299; first compound 0.253 µM)	relative viability (NCI-H1299; first compound 0.8 µM)	relative viability (NCI-H1299; first compound 2.53 µM)	relative viability (Calu-6; first compound 8 µM)	relative viability (NCI-H1563; first compound 8 µM)	relative viability (IA-LM; first compound 8 µM)	relative viability (A549; first compound 8 µM)	relative viability (EBC-1; first compound 8 µM)	relative viability (NCI-H1703; first compound 8 µM)	relative viability (NCI-H1299; first compound 8 µM)
Cc1cnc(-c2cnc(NCCNc3ccc(C#N)cn3)nc2-c2ccc(Cl)cc2Cl)[nH]1 + CS(=O)(=O)CCNCc1ccc(-c2ccc3ncnc(Nc4ccc(OCc5cccc(F)c5)c(Cl)c4)c3c2)o1 [Lapatinib] (partner 2 µM)	1.14	0.991	1	1.03	1.06	0.997	0.963	1.01	0.985	0.864	0.679	0.685	0.96	0.942	1.16	1.14	0.253	0.201	0.215	0.248	1.12	1.02	1.2	1.28	0.954	0.983	0.948	0.862	–	–	–	–	–	–	–
Cc1cnc(-c2cnc(NCCNc3ccc(C#N)cn3)nc2-c2ccc(Cl)cc2Cl)[nH]1 + C[C@@H](Oc1cc(-c2cnn(C3CCNCC3)c2)cnc1N)c1c(Cl)ccc(F)c1Cl [Crizotinib] (partner 1 µM)	0.862	0.752	0.81	0.513	0.92	0.891	0.767	0.903	0.835	0.817	0.903	0.803	0.784	0.692	0.964	0.803	0.191	0.217	0.191	0.19	0.93	0.622	0.861	0.73	0.963	0.952	0.989	0.845	–	–	–	–	–	–	–
O=c1[nH]c2ccccc2n1C1CCN(CCCC(c2ccc(F)cc2)c2ccc(F)cc2)CC1 [Pimozide] + CS(=O)(=O)CCNCc1ccc(-c2ccc3ncnc(Nc4ccc(OCc5cccc(F)c5)c(Cl)c4)c3c2)o1 [Lapatinib] (partner 2 µM)	1.08	1.07	1.02	1.02	0.955	0.829	0.933	0.756	0.888	0.987	0.64	0.761	0.912	1.01	0.976	0.882	0.208	0.213	0.192	0.223	1.02	0.944	0.763	0.958	0.977	0.972	0.91	0.937	0.933	0.533	0.893	0.802	0.162	0.865	0.875
